Several values for one entry are separate records, joined by “and”; a condition that tells them apart may be missing. Equal entries are not always repeated.
Conditions: Liquid, Optical interferometry

CO [methanol]
Conditions | thermal diffusivity
297.95 K, 5300000 kPa | 2.19e-07 m2/s
298.15 K, 4220000 kPa | 2.17e-07 m2/s
299.15 K, 0 kPa | 9.7e-08 m2/s
299.15 K, 880000 kPa | 1.59e-07 m2/s
299.15 K, 2430000 kPa | 1.86e-07 m2/s
299.15 K, 3100000 kPa | 1.92e-07 m2/s
299.15 K, 3120000 kPa | 1.99e-07 m2/s
299.75 K, 5000000 kPa | 2.37e-07 m2/s
299.85 K, 400000 kPa | 1.32e-07 m2/s
300.15 K, 370000 kPa | 1.35e-07 m2/s
300.75 K, 1750000 kPa | 1.8e-07 m2/s
300.95 K, 860000 kPa | 1.57e-07 m2/s
301.05 K, 1290000 kPa | 1.7e-07 m2/s and 1.66e-07 m2/s

Conditions | thermal diffusivity [m2/s]
299.15 K | 9.7e-08

Reference: the NIST ThermoML archive (doi:10.1021/acs.jced.7b00222)
